The record followed here is patent US5665765A, “5,6,7,8-tetrahydronaphtho[2,3-b]furan and indano[5,6-b]furan amine compounds” (Adir et Compagnie, priority 1995, dated 1997).

The pKi is the negative decadic logarithm of the Ki, by convention in mol/L. The low end stands for a high Ki, the high end for a low Ki. By pKd is commonly meant the negative decadic logarithm of the Kd, by convention in mol/L. High values mean a low Kd, low ones a high Kd.

pKd, pKi: −log10 of the molar value.

T1 sequence (P35462 whole entry): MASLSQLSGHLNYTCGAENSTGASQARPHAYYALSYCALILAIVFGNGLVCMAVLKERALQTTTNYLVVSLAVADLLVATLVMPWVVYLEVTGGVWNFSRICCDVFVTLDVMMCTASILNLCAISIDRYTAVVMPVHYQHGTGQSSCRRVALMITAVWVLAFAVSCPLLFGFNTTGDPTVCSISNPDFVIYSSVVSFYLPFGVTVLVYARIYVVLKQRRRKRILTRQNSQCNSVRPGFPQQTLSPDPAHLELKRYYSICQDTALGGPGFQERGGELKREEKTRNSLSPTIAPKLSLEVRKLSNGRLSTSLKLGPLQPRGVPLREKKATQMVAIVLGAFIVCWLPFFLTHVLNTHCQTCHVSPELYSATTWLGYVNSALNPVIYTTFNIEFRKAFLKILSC

The first assay addresses T1, human dopamine D3 receptor (Homo sapiens, UniProt P35462).
T1 construct: expressed in transfected cells; membranes
Put plainly: binding to human D3 receptors expressed in CHO cells ([125I]-iodosulpride).
Details: not given
The protocol:
(§1) STUDY OF THE BINDING OF THE COMPOUNDS OF THE INVENTION TO HUMAN D2 AND D3 RECEPTORS EXPRESSED IN CHO CELLS
(§2) CHO (Chinese Hamster Ovary) cells were transfected in a stable manner by the gene coding for the human dopamine D2 or D3 receptor according to methods known from the literature. The native cells are deficient in the enzyme DHFR (DiHydroFolate Reductase). Those cells are cultured in a vessel at 37° C. in a humid atmosphere of 5% CO2 : 95% air. The transfections were carried out using Lipofectine (Gibco). The CHO cells, cotransfected with the human D2 receptor and the gene for resistance to phleomycin, were selected for their resistance to the presence of that antibiotic in the culture medium. The cells transfected with the human D3 receptor were selected in a medium lacking in hypoxanthine/thymidine, in the presence of methotrexate. The compositions of the culture media used are, for CHO--D2 : DMEM (Dulbecco's Modified Eagle Medium) supplemented with 10% foetal calf serum and hypoxanthine/thymidine and, for CHO--D3 : DMEM supplemented with 10% dialysed foetal calf serum. The confluent cells are harvested and the membranes are then prepared.
After a few minutes in the presence of 0.2% trypsin, the cells are recovered and centrifuged at 2000 g for 5 minutes. The cell mass, resuspended in […] tris-HCl buffer, pH 7.5, containing 5 mM MgSO4, is then […] over Polytron®. The homogenate is then centrifuged at 50 000 g for 15 minutes, and the mass is resuspended by gentle sonication in an incubation buffer of the following composition: 50 mM tris-HCl, pH 7.5, containing 120 mM NaCl, 5 mM KCl, 2 mM CaCl2 and 5 mM MgCl2. The membranes are then divided into aliquots and preserved at -80° C. until the day of the experiment.
The incubation is carried out in polypropylene tubes at a final volume of 400 μl containing:
100 μl of [^125 I]-iodosulpride (Amersham) at 0.1 and 0.2 nM for the D2 and D3 receptors respectively.
100 μl of buffer (total tubes)
100 μl of raclopride 10 μM (non-specific binding)
200 μl of membrane preparation containing the D2 or D3 receptors, in a buffer to which
0.2% BSA (bovine serum albumin) has been added.
(§3) The ranges of concentration of each compound include at least 7 points determined in triplicate; each experiment is repeated at least twice.
The incubation, which lasts 30 minutes at 30° C., is terminated by rapid filtration in a Brandle apparatus, followed by three consecutive washes with tris-HCl buffer, pH 7.4, containing 120 m M NaCl. The filters recovered are then counted with a gamma counter.
The IC50, which represents the concentration that gives a 50% inhibition of the binding of the radioligand, is calculated by non-linear regression (Prism Graph method). The Ki value is derived from the formula Ki=IC50 (1+L/Kd) where L is the concentration of [^125 I]-iodosulpride used in the experiment and Kd its dissociation constant. The results are expressed in the form of pKi (pKi=-logKi).
Take `CCCN[C@@H]1CCc2c(OC)cccc2[C@@H]1C` [AJ 76, [cis(+)-1S,2R]-5-methoxy-1-methyl-2-n-propylaminotetralin]: the pKi was 7.16.

The same assay, now with this note: [125I]-iodosulpride 0.2 nM, CHO cell membranes, 30 min at 30° C.; pKi=-logKi; read-out: pKi (human D3) (converted).
As to `NC1CCc2cc3c(cc2C1)OCC3` (stereo not drawn), the Ki is 158 nM.

On to `NC1CCc2cc3ccoc3cc2C1` (stereo not drawn), for which the Ki is 389 nM.

On to `CCOCCNC1CCc2cc3c(cc2C1)OCC3` (stereo not drawn), for which the Ki is 759 nM.

Consider `FC(F)(F)CNC1CCc2cc3c(cc2C1)OCC3` (stereo not drawn), for which the Ki is 10000 nM.

Consider `CN(C)C1CCc2cc3c(cc2C1)OCC3` (stereo not drawn), for which the Ki was 209 nM.

Regarding `CN(CC1CCCCC1)C1CCc2cc3c(cc2C1)OCC3` (stereo not drawn), the Ki is 151 nM.

For `c1ccc(CNC2CCc3cc4c(cc3C2)OCC4)cc1` (stereo not drawn), the Ki is 1170 nM.

As to `CCCN(CCc1ccc(O)cc1)C1CCc2cc3c(cc2C1)OCC3` (racemic) [Example 3, (7RS)-7-{N-[2-(4-hydroxyphenyl)ethyl]-N-propylamino}-5,6,7,8-tetrahydronaphtho[2,3-b]2,3-dihydrofuran], the Ki was 2.24 nM.

With `CCCN(CCc1ccc2c(c1)CC(=O)N2)C1CCc2cc3c(cc2C1)OCC3` (racemic) [Example 6, (7RS)-7-{N-[2-((3H)-indol-2-on-5-yl)ethyl]-N-propylamino}-5,6,7,8-tetrahydronaphtho[2,3-b]2,3-dihydrofuran], the Ki is 1.15 nM.

For the compound `CCCN(CCCc1ccc2c(c1)CC(=O)N2)C1CCc2cc3c(cc2C1)OCC3` (racemic) [Example 7, (7RS)-7-{N-[3-((3H)-indol-2-on-5-yl)propyl]-N-propylamino}-5,6,7,8-tetrahydronaphtho[2,3-b]2,3-dihydrofuran], the Ki was 3.47 nM.

Take `CCCN(CCCc1ccc(NC(C)=O)cc1)C1CCc2cc3c(cc2C1)OCC3` (racemic) [Example 13]: the Ki was 3.55 nM.

The assay is the same for the next values; noted with them: human D3 vs D2 binding.
Turning to `CCCN[C@@H]1CCc2c(OC)cccc2[C@@H]1C` [AJ 76, [cis(+)-1S,2R]-5-methoxy-1-methyl-2-n-propylaminotetralin], the “selectivity for the D3 receptor compared with the D2 receptor” value amounted to 2.

The same assay, now with this note: radioligand dissociation constant used in Ki formula.
With [^125 I]-iodosulpride, the pKd was 8.88.

For a further assay, the target named is T2, human dopamine D2 receptor (Homo sapiens, UniProt P14416).
T2 construct: expressed in transfected cells; membranes
T2 sequence (P14416 whole entry): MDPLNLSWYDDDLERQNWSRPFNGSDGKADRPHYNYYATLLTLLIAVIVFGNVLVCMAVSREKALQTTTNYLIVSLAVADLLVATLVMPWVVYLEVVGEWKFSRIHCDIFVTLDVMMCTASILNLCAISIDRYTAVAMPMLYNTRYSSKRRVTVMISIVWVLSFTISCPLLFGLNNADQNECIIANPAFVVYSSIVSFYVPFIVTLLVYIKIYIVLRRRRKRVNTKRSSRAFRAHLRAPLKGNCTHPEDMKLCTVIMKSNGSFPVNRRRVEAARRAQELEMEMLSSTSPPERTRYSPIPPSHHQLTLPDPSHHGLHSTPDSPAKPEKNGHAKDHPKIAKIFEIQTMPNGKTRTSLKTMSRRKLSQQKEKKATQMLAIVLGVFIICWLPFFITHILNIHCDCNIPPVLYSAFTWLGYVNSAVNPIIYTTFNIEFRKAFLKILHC
Put plainly: binding to human D2 receptors expressed in CHO cells ([125I]-iodosulpride). Conditions: radioligand dissociation constant used in Ki formula. The protocol: as §1
as §2, with “The compositions of the culture media used are, for CHO--D2 : DMEM (Dulbecco's Modified Eagle Medium) supplemented with 10% foetal calf serum and hypoxanthine/thymidine and, for CHO--D3 : DMEM supplemented with 10% dialysed foetal calf serum. The confluent cells are harvested and the membranes are then prepared.” left out
as §3
The incubation, which lasts 30 minutes at 30° C., is terminated by rapid filtration in a Brandle apparatus, followed by three consecutive washes with tris-HCl buffer, pH 7.4, containing 120 m M NaCl. The filters recovered are then counted with a gamma counter. […]
In the case of [^125 I]-iodosulpride, the pKd was 9.30.
